Laboratory results taken from the NIST ThermoML archive (doi:10.1016/j.jct.2018.12.014).
± gives the expanded uncertainty stated by the source.

Assays:
[1] = 101 kPa, Liquid, Vibrating tube method
[2] = refractive index (Na D-line) (dimensionless); conditions: 101 kPa, Liquid, Standard Abbe refractometry
[3] = refractive index (Na D-line) (dimensionless); wn = mass fraction of the nth substance listed; conditions: 101 kPa, Liquid, Standard Abbe refractometry, w2 = 0
[4] = wn = mass fraction of the nth substance listed; conditions: 101 kPa, Liquid, Vibrating tube method, w2 = 0

CN(CCO)CCO [N-methyldiethanolamine]
Conditions | mass density, [1] [kg/m3] | refractive index, [2]
293.15 K | 1040.31 ± 8.4 | 1.46942 ± 0.0042
298.15 K | 1036.42 ± 8.3 | 1.46732 ± 0.0042
303.15 K | 1032.55 ± 8.3 | 1.46498 ± 0.0042
308.15 K | 1028.7 ± 8.3 | 1.46285 ± 0.0042
313.15 K | 1025.14 ± 8.2 | 1.46099 ± 0.0042
318.15 K | 1021.34 ± 8.2 | 1.45879 ± 0.0042
323.15 K | 1017.55 ± 8.2 | 1.4568 ± 0.0042
328.15 K | 1013.89 ± 8.2 | 1.45461 ± 0.0042
333.15 K | 1010.07 ± 8.1 | 1.45252 ± 0.0042
338.15 K | 1006.37 ± 8.1 | 1.45042 ± 0.0042
343.15 K | 1002.33 ± 8.1 | 1.44855 ± 0.0042
348.15 K | 998.62 ± 8 | –
353.15 K | 995.05 ± 8 | –

CN(CCO)CCO [N-methyldiethanolamine] + C[P+](c1ccccc1)(c1ccccc1)c1ccccc1.[Br-]
Conditions | mass density, [4] [kg/m3] | refractive index, [3]
293.15 K | 1040.31 ± 8.4 | 1.46942 ± 0.0042
298.15 K | 1036.42 ± 8.3 | 1.46732 ± 0.0042
303.15 K | 1032.55 ± 8.3 | 1.46498 ± 0.0042
308.15 K | 1028.7 ± 8.3 | 1.46285 ± 0.0042
313.15 K | 1025.14 ± 8.2 | 1.46099 ± 0.0042
318.15 K | 1021.34 ± 8.2 | 1.45879 ± 0.0042
323.15 K | 1017.55 ± 8.2 | 1.4568 ± 0.0042
328.15 K | 1013.89 ± 8.2 | 1.45461 ± 0.0042
333.15 K | 1010.07 ± 8.1 | 1.45252 ± 0.0042
338.15 K | 1006.37 ± 8.1 | 1.45042 ± 0.0042
343.15 K | 1002.33 ± 8.1 | 1.44855 ± 0.0042
348.15 K | 998.62 ± 8 | –
353.15 K | 995.05 ± 8 | –
